Positions of bridges follow the written chain, without caps; N, C: chain ends. Non-standard residues stand in square brackets, D forms with d. Residues, ends and D or L forms follow the SMILES beside them. *: point of attachment. Ileψ(thiazoline)Cys = CC[C@H](C)[C@H](N)C1=N[C@H](C(=O)*)CS1; dOrn = NCCC[C@@H](N)C(=O)O
Legend:
E. coli DNA gyrase [1] = target: T1, E. coli DNA gyrase (Escherichia coli, UniProt P0AES4+P0AES6); format: biochemical; conditions: 50 μM compound; for Fluorescent Intensity #1 / Fluorescent Intensity #2 / Mean Fluorescent Intensity: 50-compound library screen; for Fluorescent Intensity #1: duplicate 1; for Fluorescent Intensity #1 / Fluorescent Intensity #2: low fluorescence = gyrase poison; for Fluorescent Intensity #2: duplicate 2; for Mean Fluorescent Intensity: mean of duplicates; for hit in HTS pilot screen (inhibition ≥50% cutoff): duplicate; for fluorescence intensity compared with negative controls (in words): HTS screen
T1 construct: made in house
T1 sequence (P0AES4 whole entry, one chain of several): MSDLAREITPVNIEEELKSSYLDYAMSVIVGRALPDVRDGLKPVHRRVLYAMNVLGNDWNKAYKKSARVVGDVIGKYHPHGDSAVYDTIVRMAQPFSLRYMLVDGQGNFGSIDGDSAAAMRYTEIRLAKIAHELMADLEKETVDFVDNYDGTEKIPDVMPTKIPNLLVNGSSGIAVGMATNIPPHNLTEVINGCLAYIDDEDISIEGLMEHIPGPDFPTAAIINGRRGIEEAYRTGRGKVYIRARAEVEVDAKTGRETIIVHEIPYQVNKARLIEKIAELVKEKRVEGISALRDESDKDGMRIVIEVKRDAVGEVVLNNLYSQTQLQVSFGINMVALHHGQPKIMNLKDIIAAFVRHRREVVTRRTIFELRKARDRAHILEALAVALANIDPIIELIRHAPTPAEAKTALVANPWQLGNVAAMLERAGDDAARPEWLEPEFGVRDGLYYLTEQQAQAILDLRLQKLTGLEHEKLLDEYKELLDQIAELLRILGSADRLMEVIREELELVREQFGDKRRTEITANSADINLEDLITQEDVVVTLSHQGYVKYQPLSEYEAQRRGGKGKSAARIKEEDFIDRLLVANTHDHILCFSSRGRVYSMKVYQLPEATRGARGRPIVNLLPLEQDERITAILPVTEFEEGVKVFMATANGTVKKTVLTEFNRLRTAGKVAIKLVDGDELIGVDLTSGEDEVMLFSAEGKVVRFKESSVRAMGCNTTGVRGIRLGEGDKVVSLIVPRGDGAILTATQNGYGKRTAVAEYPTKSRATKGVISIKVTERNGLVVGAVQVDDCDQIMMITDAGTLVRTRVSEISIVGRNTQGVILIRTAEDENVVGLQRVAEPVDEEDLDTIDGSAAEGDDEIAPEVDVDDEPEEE
Protocol: FIGS. 6A-6B. High throughput screening (HTS) pilot screen of the 50-compound library for E. coli DNA gyrase poisoning inhibitors in duplicate. A final compound concentration of 50 μM was used. […] (A) Fluorescence raw data.
A Fluorescence-Based, T5 Exonuclease-Amplified DNA Cleavage Assay to Identify Poisoning Inhibitors for E. coli DNA Gyrase.
For negative control experiments, 1% DMSO was used. […] 0.5 mg/mL of proteinase K was then added to the reaction mixtures to digest DNA gyrase at 50° C. for 30 min. After the DNA samples were diluted 100 times using 1×NEB buffer 4 (20 mM Tris-Acetate, pH 7.9, 50 mM KAc, 10 mM Mg(AC)2, and 1 mM DTT), 30 μL of each DNA sample was transfer to a well of a 384-well plate. 200 nM of T5 exonuclease was used to digest DNA fragment for 2 hours at 37° C. 1×SYBR™ Green was added to all DNA samples. Fluorescence intensity was measured using a Biotek microplate reader with excitation wavelength of 497 nm and emission wavelength of 525 nm.
Z′ was calculated by the following equation: […]

E. coli DNA gyrase [2] = target: T1, E. coli DNA gyrase; assay: Agarose gel-based DNA gyrase-mediated DNA cleavage assay; format: biochemical; conditions: FIG. 7B
Protocol: FIGS. 2A-2F. Agarose gel-based DNA gyrase cleavage assays were performed as described in Materials and Methods. […] Lane 7 is Lambda DNA HindIII digest as the molecular standard. […] 500 ng of a DNA HindIII digest was digested using 50 nM of T5E in 20 μL of 1× gyrase-mediated DNA cleavage buffer (20 mM Tris-HCl pH 8, 50 mM KAc, 10 mM MgCl2, 2 mM DTT, 1 mM ATP, 0.1 mg/mL BSA) for 30 min in the presence of different concentrations of SDS. […] (E) Effects of sarkosyl on T5 exonuclease (T5E). 500 ng of a DNA HindIII digest was digested using 50 nM of T5E in 20 μL of 1× gyrase-mediated DNA cleavage buffer for 30 min in the presence of different concentrations of sarkosyl. […] Lanes 1-7 contained 0, 5, 10, 20, 30, 40, and 50 nM of T5 exonuclease, respectively.
DNA Gyrase and Human DNA Topoisomerase IIα Mediated DNA Cleavage Assay.
250 ng of relaxed plasmid pBR322 and 20 nM of E. coli DNA gyrase or human DNA topoisomerase IIα were mixed and incubated in 1×gyrase-mediated DNA cleavage buffer (20 mM Tris-HCl pH 8, 50 mM KAc, 10 mM MgCl2, 2 mM DTT, 1 mM ATP, 0.1 mg/mL BSA) at 37° C. for 15 minutes in the presence of an inhibitor or compound. After the incubation, 0.2% SDS and 0.1 mg/ml proteinase K were added to the reaction mixtures to trap the topoisomerase-inhibitor-DNA complex and digest the topoisomerase, respectively, by incubating for an additional 30 min at 37° C. DNA samples were analyzed in 1% agarose gel containing […] ethidium bromide in 1′TAE buffer and photographed under UV light. […] Etoposide was used as a positive control for human DNA topoisomerase IIα-mediated DNA cleavage assays.

E. coli DNA gyrase [3] = target: T1, E. coli DNA gyrase; format: biochemical; conditions: for effect on SYBR Green fluorescence intensity (in words): 20 μM compound, FIG. 7A; for fluorescence intensity of the DNA samples (in words): validation with 10 antibiotics, FIG. 5A
E. coli DNA gyrase [4] = target: T1, E. coli DNA gyrase; conditions: read-out: IC50 against E. coli DNA gyrase; cited from earlier work
T5 exonuclease = target: T2, T5 exonuclease (Escherichia phage T5, UniProt P06229); assay: Detergent inhibition of T5 exonuclease on lambda DNA HindIII digest; format: biochemical; design: detergent concentration that inhibits T5 exonuclease: dose or concentration left out as unconfirmed
T2 construct: made in house
T2 sequence (P06229 whole entry): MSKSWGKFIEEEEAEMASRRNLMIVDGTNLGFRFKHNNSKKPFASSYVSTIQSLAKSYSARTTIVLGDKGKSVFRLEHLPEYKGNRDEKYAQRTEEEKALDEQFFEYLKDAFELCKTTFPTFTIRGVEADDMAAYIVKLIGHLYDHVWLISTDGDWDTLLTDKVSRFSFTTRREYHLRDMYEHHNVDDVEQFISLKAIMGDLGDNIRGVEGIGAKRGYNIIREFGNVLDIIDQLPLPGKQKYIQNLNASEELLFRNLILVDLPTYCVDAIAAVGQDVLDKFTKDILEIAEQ
Protocol: FIGS. 2A-2F. Agarose gel-based DNA gyrase cleavage assays were performed as described in Materials and Methods. […] Lane 7 is Lambda DNA HindIII digest as the molecular standard. […] (C) The appearance and disappearance of the gyrase-mediated linear band of plasmid pBR322 is dependent of the E. coli DNA gyrase concentration. High concentrations of E. coli DNA gyrase also cause disappearance of the supercoiled plasmid in the gyrase-mediated DNA cleavage assays. […] 500 ng of a DNA HindIII digest was digested using 50 nM of T5E in 20 μL of 1× gyrase-mediated DNA cleavage buffer (20 mM Tris-HCl pH 8, 50 mM KAc, 10 mM MgCl2, 2 mM DTT, 1 mM ATP, 0.1 mg/mL BSA) for 30 min in the presence of different concentrations of SDS. […] contained 0.000625, 0.00125, 0.0025, 0.005, 0.0125, and 0.025%, respectively. (E) Effects of sarkosyl on T5 exonuclease (T5E). 500 ng of a DNA HindIII digest was digested using 50 nM of T5E in 20 μL of 1× gyrase-mediated DNA cleavage buffer for 30 min in the presence of different concentrations of sarkosyl. Lanes 3 to 10 contained 0.005, 0.0125, 0.015, 0.02, 0.025, 0.05, 0.125, and 0.25%, respectively. (F) 50 nM of T5 exonuclease completely digested 500 ng of a DNA HindIII digest in 1× gyrase-mediated DNA cleavage buffer in the presence of 0.00125%. Lanes 1-7 contained 0, 5, 10, 20, 30, 40, and 50 nM of T5 exonuclease, respectively.
FIG. 3. […]

| Compound | Fluorescent Intensity #1 (E. coli DNA gyrase [1]) | Fluorescent Intensity #2 (E. coli DNA gyrase [1]) | Mean Fluorescent Intensity (E. coli DNA gyrase [1]) | hit in HTS pilot screen (inhibition ≥50% cutoff) (E. coli DNA gyrase [1]) | also measured |
| --- | --- | --- | --- | --- | --- |
| O=C[C@H](O)[C@@H](O)[C@@H](O)CO [L-arabinose] | 4824 | 7032 | 5928 |  |  |
| COc1cccc2c1C(=O)c1c(O)c3c(c(O)c1C2=O)C[C@@](O)(C(=O)CO)C[C@@H]3O[C@H]1C[C@H](N)[C@H](O)[C@H](C)O1 [doxorubicin] |  |  |  | hits and false positive | gyrase-mediated DNA cleavage / gyrase poisoning (in words) (E. coli DNA gyrase [2]): did not cause gyrase-mediated DNA cleavage; effect on SYBR Green fluorescence intensity (in words) (E. coli DNA gyrase [3]): quenched |
| CS[C@H]1SC[C@H]2C(=O)N(C)[C@@H](C(C)C)C(=O)OC[C@@H](NC(=O)c3cnc4ccccc4n3)C(=O)N[C@@H](C)C(=O)N(C)[C@@H]1C(=O)N(C)[C@@H](C(C)C)C(=O)OC[C@@H](NC(=O)c1cnc3ccccc3n1)C(=O)N[C@@H](C)C(=O)N2C [echinomycin] |  |  |  |  | gyrase-mediated DNA cleavage / gyrase poisoning (in words) (E. coli DNA gyrase [2]): do not possess gyrase poisoning properties; fluorescence intensity compared with negative controls (in words) (E. coli DNA gyrase [1]): significant low fluorescence signals; effect on SYBR Green fluorescence intensity (in words) (E. coli DNA gyrase [3]): did not reduce the fluorescence intensity |
| CCOc1ccc2nc3cc(N)ccc3c(N)c2c1 [etharcridine] |  |  |  |  | gyrase-mediated DNA cleavage / gyrase poisoning (in words) (E. coli DNA gyrase [2]): do not possess gyrase poisoning properties; fluorescence intensity compared with negative controls (in words) (E. coli DNA gyrase [1]): significant low fluorescence signals; effect on SYBR Green fluorescence intensity (in words) (E. coli DNA gyrase [3]): did not reduce the fluorescence intensity |
| CCn1cc(C(=O)O)c(=O)c2ccc(C)nc21 [nalidixic acid] |  |  |  | hits | fluorescence intensity compared with negative controls (in words) (E. coli DNA gyrase [1]): much lower; IC50 (E. coli DNA gyrase [4]): > 50 µM |
| polymyxin B sulfate salt | 6067 | 10508 | 8287.5 |  | fluorescence intensity of the DNA samples (in words) (E. coli DNA gyrase [3]): high |
| CCn1cc(C(=O)O)c(=O)c2cc3c(cc21)OCO3 [oxolinic acid] |  |  |  | hits |  |
| CCn1cc(C(=O)O)c(=O)c2cc(F)c(N3CCNCC3)cc21 [norfloxacin] |  |  |  | hits |  |
| CC1(C)S[C@@H]2[C@H](NC(=O)[C@H](N)c3ccccc3)C(=O)N2[C@H]1C(=O)O [ampicillin] |  |  |  |  | fluorescence intensity of the DNA samples (in words) (E. coli DNA gyrase [3]): high |
| CC[C@H](C)[C@H](N)C1=N[C@H](C(=O)N[C@@H](CC(C)C)C(=O)N[C@H](CCC(=O)O)C(=O)N[C@H](C(=O)N[C@H]2CCCCNC(=O)[C@H](CC(N)=O)NC(=O)[C@@H](CC(=O)O)NC(=O)[C@H](Cc3cnc[nH]3)NC(=O)[C@@H](Cc3ccccc3)NC(=O)[C@H]([C@@H](C)CC)NC(=O)[C@@H](CCCN)NC2=O)[C@@H](C)CC)CS1 [bacitracin] ({Ileψ(thiazoline)Cys}-L[dE]IK[dOrn]I[dF]H[dD]N; lactam 4-C) | 7743 | 6533 | 7138 |  |  |
| CCN1CCN(c2cc3c(cc2F)c(=O)c(C(=O)O)cn3C2CC2)CC1 [enrofloxacin] |  |  |  | hits |  |
| Nc1ccc(S(N)(=O)=O)cc1 [sulfanilamide] |  |  |  |  | fluorescence intensity of the DNA samples (in words) (E. coli DNA gyrase [3]): high |
| CCN(CC)CCCC(C)Nc1ccnc2cc(Cl)ccc12 (stereo not shown) [chloroquine] |  | 8002 |  |  |  |
| CCCCCCCCCCCCOS(=O)(=O)[O-].[Na+] [SDS, sodium dodecyl sulfate] |  |  |  |  | effect on T5 exonuclease activity (in words) (T5 exonuclease; 50 nM T5E, FIG. 2D/2E, SDS low concentrations, sarkosyl e.g. 0.015%): completely inhibited T5 exonuclease activity; detergent concentration that inhibits T5 exonuclease (T5 exonuclease; FIG. 3): ≥ 0.05% |
| CN(C)[C@@H]1C(O)=C(C(N)=O)C(=O)[C@@]2(O)C(O)=C3C(=O)c4c(O)cccc4[C@@](C)(O)[C@H]3C[C@@H]12 [tertracycline] | 9594 | 9920 | 9757 |  |  |
| CC[C@@]1(O)C(=O)OCc2c1cc1n(c2=O)Cc2cc3c(CN(C)C)c(O)ccc3nc2-1 [topotecan] |  |  |  |  | gyrase-mediated DNA cleavage / gyrase poisoning (in words) (E. coli DNA gyrase [2]): do not possess gyrase poisoning properties; fluorescence intensity compared with negative controls (in words) (E. coli DNA gyrase [1]): significant low fluorescence signals; effect on SYBR Green fluorescence intensity (in words) (E. coli DNA gyrase [3]): did not reduce the fluorescence intensity |
| CCn1cc(C(=O)O)c(=O)c2cc(F)c(N3CCNC(C)C3)c(F)c21 (stereo not shown) [lomefloxacin] |  |  |  | hits |  |
| O=C[C@H](O)[C@@H](O)[C@H](O)[C@H](O)CO [D-glucose] | 4444 | 5984 | 5214 |  |  |
| O=C[C@H](O)[C@@H](O)[C@@H](O)[C@H](O)CO [D-galactose] | 4111 | 6277 | 5194 |  |  |
| Cc1ccc(C(=O)Nc2ccc(S(=O)(=O)O)c3cc(S(=O)(=O)O)cc(S(=O)(=O)O)c23)cc1NC(=O)c1cccc(NC(=O)Nc2cccc(C(=O)Nc3cc(C(=O)Nc4ccc(S(=O)(=O)O)c5cc(S(=O)(=O)O)cc(S(=O)(=O)O)c45)ccc3C)c2)c1 [suramin] |  |  |  |  | gyrase-mediated DNA cleavage / gyrase poisoning (in words) (E. coli DNA gyrase [2]): do not possess gyrase poisoning properties; fluorescence intensity compared with negative controls (in words) (E. coli DNA gyrase [1]): significant low fluorescence signals; effect on SYBR Green fluorescence intensity (in words) (E. coli DNA gyrase [3]): did not reduce the fluorescence intensity |
